Measurements published in patent publication US20060147569A1, “Anti-depression formulations” (priority 2005, published 2006).
Where a name gives a salt, the structure may show the parent alone.

How the values were obtained:
Assay type in all cases: in vivo
[1] = test system: Male ICR mice; experiment: Forced swimming test (FST) in mice; details: oral once daily, 26 mg/kg
Text: A major symptom of depression is decrease of motivational behaviors. In the FST model, the mice were forced to swim in a restricted space. First, they struggle in attempt to escape, which is a motivational behavior. After a period of time, the mice started to show occasional immobility, representing a “despair” mental state. The immobility is regarded as “failure to adapt to stress” and can be served as an indicator of the level of depression. The effectiveness of anti-depression drugs could be derived by measuring the duration of immobility after the mice had been forced to swim for a period of time. The model is sensitive to anti-depression drugs and is widely adopted as a means to screen such drugs. (Porsolt et al., 1977)
(§1) Male ICR mice (26±2 g) were used. The mice were housed in polycarbonate cages. […]
(§2) The animals were deprived of food but not water for 1.5 h prior to drug administration of. […] The volume of the suspension administered was based on body weight measured immediately prior to each dose, respectively. […]
The studies were carried out on mice according to the method of Porsolt (Porsolt, et al., 1977). […] The duration of immobility time was measured during the final 4 min interval of the test. […]
(§3) All data were expressed as mean±SEM, and analyzed using one-way analysis of variance (ANOVA). […]

[2] = target: T1, brain MAO-A (Rattus norvegicus, UniProt P21396); experiment: Brain MAO-A activity in CMS-treated rats; details: brain of CMS-treated rats, 10 mg/kg oral daily for 6 weeks
T1 construct: Rat brain mitochondrial fractions were prepared; from tissue; host or cells: rat brain mitochondrial fraction
T1 sequence (P21396 1-526): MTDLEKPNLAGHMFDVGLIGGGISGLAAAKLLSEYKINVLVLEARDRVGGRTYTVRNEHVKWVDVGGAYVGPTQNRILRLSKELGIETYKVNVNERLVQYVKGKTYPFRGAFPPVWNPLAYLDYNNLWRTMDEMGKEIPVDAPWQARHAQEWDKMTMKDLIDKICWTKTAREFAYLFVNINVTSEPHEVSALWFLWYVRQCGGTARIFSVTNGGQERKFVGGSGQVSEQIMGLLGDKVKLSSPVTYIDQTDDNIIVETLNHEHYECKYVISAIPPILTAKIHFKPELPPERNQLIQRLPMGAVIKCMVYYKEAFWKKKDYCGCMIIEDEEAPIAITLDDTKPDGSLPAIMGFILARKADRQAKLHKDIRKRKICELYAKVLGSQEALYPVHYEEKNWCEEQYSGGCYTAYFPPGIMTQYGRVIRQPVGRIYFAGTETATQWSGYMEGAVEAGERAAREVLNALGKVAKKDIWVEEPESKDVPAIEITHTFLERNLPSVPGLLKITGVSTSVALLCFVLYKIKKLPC
Experimental: (§4) 3. Administration and Doses • Non CMS-treated Saline group: 10 ml/kg/day. • CMS-treated Saline group: 10 ml/kg/day. • Composition I (200) group: 200 mg/kg/day. • Composition I (150) group: 150 mg/kg/day. • Fluoxetine group (positive control): 10 mg/kg/day.
(§5) Animals therein were divided randomly into the following four subgroups: • (1) Composition I (200) group: received composition I at 200 mg/kg/day; • (2) Composition I (150) group: received composition I at 150 mg/kg/day; • (3) Fluoxetine group: received fluoxetine 10 mg/kg/day; (positive control); • (4) CMS-treated saline group: received saline 10 mL/kg/day. (negative control).
(§6) 24 h after the last test of sucrose intake, between 10:00 a.m. and 11:00 a.m., all animals were decapitated quickly to get venous blood. Serum was separated by centrifugation at 3000 rpm and stored at −20° C. until assay of cortisol concentration. Brain tissues were rapidly removed on the ice-plate. The tissues were washed with cold saline, blotted dry and stored at −80° C. until assays of monoamine oxidase A and B (MAO-A and MAO-B) activity.
(§7) Rat brain mitochondrial fractions were prepared following the procedure described in Schurr and Livne, 1976. MAO activity was assessed by spectrophotometer as described in Yu et al., 2002. […] The organic phase was measured at wavelength of 280 nm and 242 nm for MAO-A and MAO-B assay with spectrophotometer, respectively. […]

[3] = target: T2, brain MAO-B (Rattus norvegicus, UniProt P19643); experiment: Brain MAO-B activity in CMS-treated rats; details: brain of CMS-treated rats, 10 mg/kg oral daily for 6 weeks
T2 construct: Rat brain mitochondrial fractions were prepared; from tissue; host or cells: rat brain mitochondrial fraction
T2 sequence (P19643 1-520): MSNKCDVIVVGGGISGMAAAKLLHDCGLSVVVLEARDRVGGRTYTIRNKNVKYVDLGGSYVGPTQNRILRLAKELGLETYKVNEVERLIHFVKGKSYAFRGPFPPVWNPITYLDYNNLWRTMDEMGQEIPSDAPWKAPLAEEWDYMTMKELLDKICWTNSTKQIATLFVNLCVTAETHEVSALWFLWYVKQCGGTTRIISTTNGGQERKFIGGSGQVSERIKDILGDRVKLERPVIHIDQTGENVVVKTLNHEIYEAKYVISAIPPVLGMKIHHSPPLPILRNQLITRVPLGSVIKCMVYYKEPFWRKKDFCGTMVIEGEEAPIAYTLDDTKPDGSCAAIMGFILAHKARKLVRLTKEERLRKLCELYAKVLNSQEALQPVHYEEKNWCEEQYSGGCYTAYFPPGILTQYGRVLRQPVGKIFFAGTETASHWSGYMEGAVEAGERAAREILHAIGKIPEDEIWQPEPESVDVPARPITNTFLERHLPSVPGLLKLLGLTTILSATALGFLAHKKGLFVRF
Experimental: as §4, §5, §6, §7

[4] = test system: CMS-treated rats; experiment: Sucrose intake test in chronic mild stress (CMS) model; details: for sucrose intake: CMS-treated rats, 10 mg/kg oral daily
Text: In the CMS model, rats are exposed sequentially, over a period of weeks, to a variety of mild stressors, and the measure most commonly used to track the effects is a decrease in consumption of a palatable sweet solution. This […] of antidepressants to increase sucrose intake in CMS model of rats. […] These impairments could be reversed by chronic administration of antidepressants such as tricyclic antidepressants, selective serotonin reuptake inhibitors and monoamine oxidase inhibitors. […] (Willner P. 1997)
Male Wistar rats, weighing 180-220 g at the start of the experiment, were used in the experiments. During the one week before experiment, each rat was housed individually in a home cage, and had free access to food and water. They were maintained on a 12 h light/dark cycle under controlled temperature 25±2° C. and tested in the light phase.
as §4
The above substances at various concentrations were dissolved in saline. The volume of the suspension administered was based on body weight measured immediately prior to each dose, respectively. All groups were administered orally for six weeks, once per day. All groups except for Non-CMS-treated saline group received CMS treatment as described below.
All animals were trained to consume 1% (w/v) sucrose solution in water. The training was conducted twice a week for consecutive 3 weeks. In the training, the rats in the home cage were deprived of food and water for 14 hours. After 14 hours, about 30 ml of 1% (w/v) sucrose solution in a pre-weighed bottled was placed in the home cages. 1 hour later, the bottle was taken out from the cage and weighed. The sucrose intake was calculated as follows: […]
Calculation: Weight of Bottle Before Intake (g)—Weight of Bottle After Intake (g)
After three weeks of training, when the sucrose intake of rats was stabilized, the rats started to receive further treatment. During the whole treatment period, the sucrose intakes of rats were monitored once every week from 9:00 a.m. to 10:00 a.m. with the same procedures as described above.
After the three-weeks training, the rats were randomly divided into two groups: the non-CMS treated group and CMS-treated group. The stress group of animals was subjected to the CMS procedure for a period of four consecutive weeks. Each week of stress regime is consisted of six different stress situations. They involved two periods of food and water deprivation, two periods of 45 o cage tilt, two periods of intermittent illumination (lights on and off every 2 h), two periods of soiled cage (200 mL water in sawdust bedding), two periods of paired housing, and two periods of low intensity stroboscopic illumination (150 flashes/min). All of the stressors were 12-14 h of duration and were applied individually and sequentially, day and night.
as §5
The rats in non-CMS treated group received saline solution at 10 mL/kg orally. All administrations were given orally once daily at 10:00 a.m. for consecutive 6 weeks.

[5] = test system: serum cortisol; experiment: Serum cortisol level in CMS-treated rats (radioimmunoassay)
Experimental: as §4, §5, §6
Serum cortisol level was assayed using a radioimmunoassay method following the manufacturer's instructions. (Manufacturer: Bejing Furui Biotechnology Company, P.R. China. Product code: FR-FJ-055).

[6] = test system: Male ICR mice; experiment: Tail suspension test (TST) in mice; details: oral once daily, 26 mg/kg
Text: A major symptom of depression is decrease of motivational behaviors. In the TST model, the tail-suspended mice struggle in attempt to overcome the abnormal body positions, which is a motivational behavior. After a period of time, the mice started to show occasional immobility, representing a “despair” mental state. The immobility is regarded as “failure to adapt to stress” and can be served as an indicator of the level of depression. The effectiveness of anti-depression drugs could be derived by measuring the duration of immobility after the mice had been tail-suspended for a period of time. The model is sensitive to anti-depression drugs and is widely adopted as a means to screen such drugs. (Steru L, Chermat R, Thierry B, Simon P. 1985.)
as §1, §2
The tail suspension test was based on the method of Steru (Steru, et al., 1985). […] The duration of immobility time was recorded during the final 4 min interval of the test. […]
as §3

SMILES: CNCCC(Oc1ccc(C(F)(F)F)cc1)c1ccccc1 (stereo not drawn) [Fluoxetine, Fluoxetine Hydrochloride]
- Duration of immobility ([1]; 3 days): 67.6 ± 10.2 s
- Duration of immobility ([1]; 7 days): 67.1 ± 8.9 s
- MAO activity A [2]: 78.05 ± 3.68 U/g protein
- inhibition at 10 mg/kg ([2]; rat): 16.4%
- MAO activity B [3]: 54.50 ± 3.56 U/g protein
- inhibition at 10 mg/kg ([3]; rat): 54%
- recovery of the sucrose intake (in words) ([4]; CMS rats, fluoxetine-treated (10 mg/kg)): not as strong as those treated with Composition (I)
- sucrose intake ([4]; week 0 of drug treatment): 5.3 ± 1.4 g
- sucrose intake ([4]; week 1): 5.5 ± 1.3 g
- sucrose intake ([4]; week 2): 5.9 ± 1.4 g
- sucrose intake ([4]; week 3): 7.3 ± 1.5 g
- sucrose intake ([4]; week 4): 8.9 ± 1.1 g
- sucrose intake ([4]; week 5): 10.4 ± 1.3 g
- sucrose intake ([4]; week 6): 13.9 ± 1.3 g
- effect on serum cortisol levels (in words) ([5]; CMS-treated rats, fluoxetine (10 mg/kg)): did not cause any significant alteration
- Cortisol level ([5]; serum of CMS-treated rats, 10 mg/kg oral daily for 6 weeks): 28.76 ± 0.56 ng/mL
- Duration of immobility ([6]; 3 days): 23.2 ± 5.2 s
- Duration of immobility ([6]; 7 days): 28.8 ± 6.4 s
